According to US7550485B2, “Substituted N-heterocycle derivatives and methods of their use” (Wyeth, priority 2003, dated 2009):
Structures can show the parent of a compound that is named as a salt.

Each compound was assayed against T1, hNET (Homo sapiens, UniProt P23975) (assay: Norepinephrine (NE) uptake assay in MDCK-Net6 cells stably transfected with human hNET). Conditions: MDCK-Net6, 1 μM test compound, [3H]NE uptake.
T1 construct: expressed in transfected cells
Type: cell-based
Description: MDCK-Net6 cells, stably transfected with human hNET (Pacholczyk, T., R. D. Blakely, and S. G. Amara, Nature, 1991, 350(6316): p. 350-4) were cultured in growth medium containing high glucose DMEM (Gibco, Cat. No. 11995), 10% FBS (dialyzed, heat-inactivated, US Bio-Technologies, Lot FBD1129HI) and 500 μg/ml G418 (Gibco, Cat. No. 10131). Cells were plated at 300,000/T75 flask and cells were split twice weekly. The JAR cell line (human placental choriocarcinoma) was purchased from ATCC (Cat. No. HTB-144). The cells were cultured in growth medium containing RPMI 1640 (Gibco, Cat. No. 72400), 10% FBS (Irvine, Cat. No. 3000), 1% sodium pyruvate (Gibco, Cat. No. 1136) and 0.25% glucose. Cells were plated at 250,000 cells/T75 flask and split twice weekly. For all assays, cells were plated in Wallac 96-well sterile plates (PerkinElmer, Cat. No. 3983498).
Norepinephrine (NE) Uptake Assay
On day 1, cells were plated at 3,000 cells/well in growth medium and maintained in a cell incubator (37° C., 5% CO2). On day 2, growth medium was replaced with 200 μl of assay buffer (25 mM HEPES; 120 mM NaCl; 5 mM KCl; 2.5 mM CaCl2; 1.2 mM MgSO4; 2 mg/ml glucose (pH 7.4, 37° C.)) containing 0.2 mg/ml ascorbic acid and 10 μM pargyline. Plates containing cells with […] of assay buffer were equilibrated for 10 minutes at 37° C. prior to addition of compounds. A stock solution of desipramine was prepared in DMSO (10 mM) and delivered to triplicate wells containing cells for a final test concentration of 1 μM. Data from these wells were used to define non-specific NE uptake (minimum NE uptake). Test compounds were prepared in DMSO (10 mM) and diluted in assay buffer according to test range (1 to 10,000 nM). Twenty-five microliters of assay buffer (maximum NE uptake) or test compound were added directly to triplicate wells containing cells in 200 μl of assay buffer. The cells in assay buffer with test compounds were incubated for 20 minutes at 37° C. To initiate the NE uptake, [^3H]NE diluted in assay buffer (120 nM final assay concentration) was delivered in 25 μl aliquots to each well and the plates were incubated for 5 minutes (37° C.). The reaction was terminated by decanting the supernatant from the plate. The plates containing cells were washed twice with 200 μl assay buffer (37° C.) to remove free radioligand. The plates were then inverted, left to dry for 2 minutes, then reinverted and air-dried for an additional 10 minutes. The cells were lysed in 25 μl of 0.25 N NaOH solution (4° C.), placed on a shake table and vigorously shaken for 5 minutes. After cell lysis, 75 μl of scintillation cocktail was added to each well and the plates were sealed with film tape. The plates were returned to the shake table and vigorously shaken for a minimum of 10 minutes to ensure adequate partitioning of organic and aqueous solutions. The plates were counted in a Wallac Microbeta counter (PerkinElmer) to collect the raw cpm data.
For each experiment, a data stream of cpm values collected from the Wallac Microbeta counter was downloaded to a Microsoft Excel statistical application program. Calculations of EC50 values were made using the transformed-both-sides logistic dose response program written by Wyeth Biometrics Department. The statistical program uses mean cpm values from wells representing maximum binding or uptake (assay buffer) and mean cpm values from wells representing minimum binding or uptake ((1 μM desipramine (hNET) or 1 μM paroxetine (hSERT)). Estimation of the EC50 value was completed on a log scale and the line was fit between the maximum and minimum binding or uptake values. All graphic data representation was generated by normalizing each data point to a mean percent based on the maximum and minimum binding or uptake values. The EC50 values reported from multiple experiments were calculated by pooling the raw data from each experiment and analyzing the pooled data as one experiment.

T1 sequence (P23975 whole entry): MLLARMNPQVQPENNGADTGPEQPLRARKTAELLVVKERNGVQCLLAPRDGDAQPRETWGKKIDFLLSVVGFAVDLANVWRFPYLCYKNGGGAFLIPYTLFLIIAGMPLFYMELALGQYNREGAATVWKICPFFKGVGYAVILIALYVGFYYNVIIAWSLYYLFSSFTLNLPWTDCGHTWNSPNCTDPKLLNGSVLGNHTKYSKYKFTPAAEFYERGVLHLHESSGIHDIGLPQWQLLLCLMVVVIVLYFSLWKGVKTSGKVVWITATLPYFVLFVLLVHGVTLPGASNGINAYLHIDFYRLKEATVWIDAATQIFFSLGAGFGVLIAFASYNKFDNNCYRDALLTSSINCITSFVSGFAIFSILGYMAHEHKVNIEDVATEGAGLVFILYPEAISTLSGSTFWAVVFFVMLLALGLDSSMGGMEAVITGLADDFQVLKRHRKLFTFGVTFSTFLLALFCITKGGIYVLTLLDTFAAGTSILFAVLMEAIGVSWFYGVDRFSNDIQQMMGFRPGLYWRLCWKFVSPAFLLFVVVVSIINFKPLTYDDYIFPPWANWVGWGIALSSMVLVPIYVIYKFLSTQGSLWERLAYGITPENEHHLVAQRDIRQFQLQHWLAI

Row | inhibition at 1 µM [%] | Compound
1 | 88.8 | N[C@H]1CCN(CC(c2ccc(OCc3ccccc3)c(Cl)c2)C2(O)CCCCC2)C1 (stereo partly drawn) [Example 210, 1-{2-[(3S)-3-aminopyrrolidin-1-yl]-1-[4-(benzyloxy)-3-chlorophenyl]ethyl}cyclohexanol dihydrochloride]
2 | 95.6 | CN(C)[C@H]1CCN(CC(c2ccc(OCc3ccccc3)c(Cl)c2)C2(O)CCCCC2)C1 (stereo partly drawn) [Example 211, 1-{1-[4-(benzyloxy)-3-chlorophenyl]-2-[(3S)-3-(dimethylamino)pyrrolidin-1-yl]ethyl}cyclohexanol dihydrochloride]
3 | 84.8 | CN[C@H]1CCN(CC(c2ccc(OCc3ccccc3)cc2)C2(O)CCCCC2)C1 (stereo partly drawn) [Example 212, 1-{1-[4-(benzyloxy)phenyl]-2-[(3S)-3-(methylamino)pyrrolidin-1-yl]ethyl}cyclohexanol dihydrochloride]
4 | 84.5 | N[C@H]1CCN(CC(c2ccc(OCc3ccccc3)cc2)C2(O)CCCCC2)C1 (stereo partly drawn) [Example 213, 1-{2-[(3S)-3-aminopyrrolidin-1-yl]-1-[4 (benzyloxy)phenyl]ethyl}cyclohexanol dihydrochloride]
5 | 65 | CN(C)[C@H]1CCN(CC(c2ccc(OCc3ccccc3)cc2)C2(O)CCCCC2)C1 (stereo partly drawn) [Example 214, 1-{1-[4-(benzyloxy)phenyl]-2-[(3S)-3-(dimethylamino)pyrrolidin-1-yl]ethyl}cyclohexanol dihydrochloride]
6 | 30.2 | CN[C@H]1CCN(CC(c2cccc(OC(F)(F)F)c2)C2(O)CCCCC2)C1 (stereo partly drawn) [Example 215, 1-{2-[(3S)-3-(methylamino)pyrrolidin-1-yl]-1-[3-(trifluoromethoxy)phenyl]ethyl}cyclohexanol dihydrochloride]
7 | 38.9 | N[C@H]1CCN(CC(c2cccc(OC(F)(F)F)c2)C2(O)CCCCC2)C1 (stereo partly drawn) [Example 216, 1-{2-[(3S)-3-aminopyrrolidin-1-yl]-1-[3-(trifluoromethoxy)phenyl]ethyl}cyclohexanol dihydrochloride]
8 | 42 | CN[C@@H]1CCN(CC(c2cccc(OC(F)(F)F)c2)C2(O)CCCCC2)C1 (stereo partly drawn) [Example 218, 1-{2-[(3R)-3-(methylamino)pyrrolidin-1-yl]-1-[3-(trifluoromethoxy)phenyl]ethyl}cyclohexanol dihydrochloride]
9 | 53.1 | CN(C)[C@@H]1CCN(CC(c2cccc(OC(F)(F)F)c2)C2(O)CCCCC2)C1 (stereo partly drawn) [Example 219, 1-{2-[(3R)-3-(dimethylamino)pyrrolidin-1-yl]-1-[3-(trifluoromethoxy)phenyl]ethyl}cyclohexanol dihydrochloride]
10 | 27.3 | CN[C@H]1CCN(CC(c2cccc(C(F)(F)F)c2)C2(O)CCCCC2)C1 (stereo partly drawn) [Example 220, 1-{2-[(3S)-3-(methylamino)pyrrolidin-1-yl]-1-[3-(trifluoromethyl)phenyl]ethyl}cyclohexanol dihydrochloride]
11 | 63.9 | N[C@H]1CCN(CC(c2cccc(C(F)(F)F)c2)C2(O)CCCCC2)C1 (stereo partly drawn) [Example 221, 1-{2-[(3S)-3-aminopyrrolidin-1-yl]-1-[3-(trifluoromethyl)phenyl]ethyl}cyclohexanol dihydrochloride]
12 | 31.9 | CN(C)[C@H]1CCN(CC(c2cccc(C(F)(F)F)c2)C2(O)CCCCC2)C1 (stereo partly drawn) [Example 222, 1-{2-[(3S)-3-(dimethylamino)pyrrolidin-1-yl]-1-[3-(trifluoromethyl)phenyl]ethyl}cyclohexanol dihydrochloride]
13 | 27.5 | N[C@@H]1CCN(CC(c2cccc(C(F)(F)F)c2)C2(O)CCCCC2)C1 (stereo partly drawn) [Example 224, 1-{2-[(3R)-3-aminopyrrolidin-1-yl]-1-[3-(trifluoromethyl)phenyl]ethyl}cyclohexanol dihydrochloride]
14 | 84 | CN(C)[C@@H]1CCN(CC(c2cccc(C(F)(F)F)c2)C2(O)CCCCC2)C1 (stereo partly drawn) [Example 225, 1-{2-[(3R)-3-(dimethylamino)pyrrolidin-1-yl]-1-[3-(trifluoromethyl)phenyl]ethyl}cyclohexanol dihydrochloride]
15 | 84.2 | CNC1CCN(CC(c2cccc(Cl)c2)C2CCCC2)CC1 (stereo not shown) [Example 228, 1-[2-(3-chlorophenyl)-2-cyclopentylethyl]-N-methylpiperidin-4-amine dihydrochloride]
16 | 87.3 | CN(C)C1CCN(CC(c2cccc(Cl)c2)C2CCCC2)CC1 (stereo not shown) [Example 229, 1-[2-(3-chlorophenyl)-2-cyclopentylethyl]-N,N-dimethylpiperidin-4-amine dihydrochloride]
17 | 79.1 | CNC1CCN(CC(c2cccc(Cl)c2)C2CCCCC2)CC1 (stereo not shown) [Example 232, 1-[2-(3-chlorophenyl)-2-cyclohexylethyl]-N-methylpiperidin-4-amine dihydrochloride]
18 | 91.1 | CN(C)C1CCN(CC(c2cccc(Cl)c2)C2CCCCC2)CC1 (stereo not shown) [Example 233, 1-[2-(3-chlorophenyl)-2-cyclohexylethyl]-N,N-dimethylpiperidin-4-amine dihydrochloride]
19 | 49.7 | CNC1CCN(CC(c2cccc(Cl)c2)C2CCCCCC2)CC1 (stereo not shown) [Example 236, 1-[2-(3-chlorophenyl)-2-cycloheptylethyl]-N-methylpiperidin-4-amine dihydrochloride]
20 | 81.8 | NC1CCN(CC(c2cccc(Cl)c2)C2CCCCC2O)CC1 (stereo not shown) [Example 239, 2-[2-(4-aminopiperidin-1-yl)-1-(3-chlorophenyl)ethyl]cyclohexanol dihydrochloride]
21 | 4.4 | OC1CCN(CC(c2cccc(OC(F)(F)F)c2)C2(O)CCCCC2)CC1 (stereo not shown) [Example 240, 1-{2-(1-hydroxycyclohexyl)-2-[3-(trifluoromethoxy)phenyl]ethyl}piperidin-4-ol hydrochloride]
22 | 72.5 | OC1CCN(CC(c2ccc(OCc3ccccc3)c(Cl)c2)C2(O)CCCCC2)CC1 (stereo not shown) [Example 241, 1-[2-[4-(benzyloxy)-3-chlorophenyl]-2-(1-hydroxycyclohexyl)ethyl]piperidin-4-ol hydrochloride]
23 | 2 | COC1CCN(CC(c2ccc(OCc3ccccc3)c(Cl)c2)C2(O)CCCCC2)CC1 (stereo not shown) [Example 242, 1-[1-[4-(benzyloxy)-3-chlorophenyl]-2-(4-methoxypiperidin-1-yl)ethyl]cyclohexanol hydrochloride]
24 | 79 | CC(C)(O)C(CN1CCC(N)CC1)c1cccc(Cl)c1 (stereo not shown) [Example 273, 4-(4-aminopiperidin-1-yl)-3-(3-chlorophenyl)-2-methylbutan-2-ol dihydrochloride]
25 | 50 | CN(C)C1CCN(CC(c2cccc(Cl)c2)C(C)(C)O)CC1 (stereo not shown) [Example 274, 3-(3-chlorophenyl)-4-[4-(dimethylamino)piperidin-1-yl]-2-methylbutan-2-ol dihydrochloride]
26 | 18 | COc1ccc2scc(C(CN3CCC(N)CC3)C3(O)CCCCC3)c2c1 (stereo not shown) [Example 280, 1-[2-(4-aminopiperidin-1-yl)-1-(5-methoxy-1-benzothien-3-yl)ethyl]cyclohexanol dihydrochloride]

Row | Compound | inhibition at 1 µM [%]
27 | CN(C)C1CCN(CC(c2cccc(Cl)c2)C2CCCCCC2)CC1 (stereo not shown) [Example 237, 1-[2-(3-chlorophenyl)-2-cycloheptylethyl]-N,N-dimethylpiperidin-4-amine dihydrochloride] | 81.9

Same assay, conditions: MDCK-Net6, 10 μM test compound (stated in cell), [3H]NE uptake

Row | inhibition at 10 µM [%] | Compound
28 | 84.2 | CN(C)[C@H]1CCN(CC(c2cccc(OC(F)(F)F)c2)C2(O)CCCCC2)C1 (stereo partly drawn) [Example 217, 1-{2-[(3S)-3-(dimethylamino)pyrrolidin-1-yl]-1-[3-(trifluoromethoxy)phenyl]ethyl}cyclohexanol dihydrochloride]
